Each structure is given as a SMILES string.

One assay relates to HCV genotype 1a replicon. The assay is described as follows: HCV replicon assay, genotype 1a (cell ELISA for replicon-encoded NS3/4A). The format is cell-based. Conditions: Hepatitis C virus, 96 h, read-out: 1a IC50. As for the experimental part: (§1) Measurement of inhibition by compounds was performed using the HCV replicon system. Several different replicons encoding different HCV genotypes or mutations were used. In addition, potency measurements were made using different formats of the replicon assay, including different ways of measurements and different plating formats. See Jan M. Vrolijk et al., A replicons-based bioassay for the measurement of interferons in patients with chronic hepatitis C, 110 J. V[…] 201 (2003); Steven S. Carroll et al., Inhibition of Hepatitis C Virus RNA Replication by 2′-Modified Nucleoside Analogs, 278(14) J. BIOLOGICAL CHEMISTRY 11979 (2003). However, the underlying principles are common to all of these determinations, and are outlined below.
(§2) Stable neomycin phosphotransferase encoding replicons-harboring cell lines were used, so all cell lines were maintained under G418 selection prior to the assay. Potency was determined using a cell ELISA assay with an antibody to the replicons encoded NS3/4a protease. See Caterina Trozzi et al., In Vitro Selection and Characterization of Hepatitis C Virus Serine Protease Variants Resistant to an Active-Site Peptide Inhibitor, 77(6) J. Virol. 3669 (2003). To initiate an assay, replicon cells were plated in the presence of a dilution series of test compound in the absence of G418. Typically, the assays were performed in a 96-well plate formate for manual operation, or a 384-well plate format for automated assay. Replicon cells and compound were incubated for 96 hours. At the end of the assay, cells were washed free of media and compound, and the cells were then lysed. RNA was quantified indirectly through detection of replicon-encoded NS3/4A protein levels, through an ELISA-based assay with an antibody specific for NS3/4A. IC50 determinations were calculated as a percentage of a DMSO control by fitting the data to a four-parameter fit function and the data obtained is provided in the table below.
(§3) Data for selected compounds of the present invention was obtained for genotypes 1a and 1b using this method and is provided in the table below: […]
(In general: In antiviral work, replicon cells carry a viral genome segment that copies itself.)

The test system of another assay is HCV genotype 1b replicon. The assay is described as follows: HCV replicon assay, genotype 1b (cell ELISA for replicon-encoded NS3/4A). In kind it is cell-based. Conditions: Hepatitis C virus, 96 h, read-out: 1b IC50. The method, then:
as §1, §2, §3

The IC50 is the point on the concentration scale where inhibition reaches its midpoint. `CNC(=O)c1c(-c2ccc(OC)nc2)oc2cc(N(C)S(C)(=O)=O)c(-c3ccc4c(n3)-c3cc5c(F)cccc5n3C(CO)O4)cc12` (single isomer, unassigned) [Compound 21, (S or R)-5-(11-fluoro-6-(hydroxymethyl)-6H-pyrido[2′,3′:5,6][1,3]oxazino[3,4-a]indol-2-yl)-2-(6-methoxypyridin-3-yl)-N-methyl-6-(N-methylmethylsulfonamido)benzofuran-3-carboxamide]: the values for the IC50 with HCV genotype 1a replicon and in the assay with HCV genotype 1b replicon were 2.4 nM and 2.8 nM, respectively.

On to `CNC(=O)c1c(C(=O)N(C)C)oc2cc(N(C)S(C)(=O)=O)c(-c3ccc4c(n3)-c3cc5c(F)cccc5n3CO4)cc12` [Compound 55], for which the IC50 turned out to be 4 nM with HCV genotype 1a replicon and 6.4 nM with HCV genotype 1b replicon.

With `CNC(=O)c1c(-c2cnn(C)c2)oc2cc(N(C)S(C)(=O)=O)c(-c3ccc4c(n3)-c3cc5c(F)cccc5n3CO4)cc12` [Compound 5], the results for the IC50 in the assay with HCV genotype 1a replicon and in the assay on HCV genotype 1b replicon were 4.4 nM and 7.5 nM, respectively.

In the case of `CNC(=O)c1c(-n2cnc(C)n2)oc2cc(N(C)S(C)(=O)=O)c(-c3ccc4c(n3)-c3cc5c(F)cccc5n3CO4)cc12` [Compound 41], the IC50 with HCV genotype 1a replicon was found to be 82 nM; with HCV genotype 1b replicon, 22 nM.

Consider `CNC(=O)c1c(N2CCOC2=O)oc2cc(N(C)S(C)(=O)=O)c(-c3ccc4c(n3)-c3cc5c(F)cccc5n3CO4)cc12` [Compound 43], for which the IC50 is 21 nM with HCV genotype 1a replicon and 50 nM in the assay on HCV genotype 1b replicon.

For `CNC(=O)c1c(C2CC2)oc2cc(N(C)S(C)(=O)=O)c(-c3cc4c(cn3)OC(CO)n3c-4cc4c(F)cccc43)cc12` (stereo not shown) [Compound 52], the IC50 with HCV genotype 1a replicon is 52 nM; in the assay on HCV genotype 1b replicon, 23 nM.

For `CNC(=O)c1c(-c2cnn(C(C)C)c2)oc2cc(N(C)S(C)(=O)=O)c(-c3ccc4c(n3)-c3cc5c(F)cccc5n3CO4)cc12` [Compound 34], the IC50 amounted to 15 nM in the assay on HCV genotype 1a replicon and 14 nM in the assay with HCV genotype 1b replicon.

Regarding `CNC(=O)c1c(-c2ccc(OC(F)(F)F)cc2)oc2cc(N(C)S(C)(=O)=O)c(-c3ccc4c(n3)-c3cc5c(F)cccc5n3CO4)cc12` [Compound 33], the IC50 worked out at 50 nM in the assay with HCV genotype 1a replicon and 2.5 nM in the assay with HCV genotype 1b replicon.

On to `CNC(=O)c1c(-n2cc(C)cn2)oc2cc(N(C)S(C)(=O)=O)c(-c3ccc4c(n3)-c3cc5c(F)cccc5n3CO4)cc12` [Compound 39], for which the IC50 amounted to 48 nM with HCV genotype 1a replicon and 67 nM with HCV genotype 1b replicon.

Regarding `CNC(=O)c1c(-c2ccc(OC(F)F)nc2)oc2cc(N(C)S(C)(=O)=O)c(-c3ccc4c(n3)-c3cc5c(F)cccc5n3CO4)cc12` [Compound 25, 2-(6-(difluoromethoxy)pyridin-3-yl)-5-(11-fluoro-6H-pyrido[2′,3′:5,6][1,3]oxazino[3,4-a]indol-2-yl)-N-methyl-6-(N-methylmethylsulfonamido)benzofuran-3-carboxamide], the IC50 in the assay with HCV genotype 1a replicon amounted to 3 nM; in the assay on HCV genotype 1b replicon, 5 nM.

For the compound `CNC(=O)c1c(-c2ccc(C(F)F)nc2)oc2cc(N(C)S(C)(=O)=O)c(-c3ccc4c(n3)-c3cc5c(F)cccc5n3CO4)cc12` [Compound 9], the IC50 with HCV genotype 1a replicon came to 2.5 nM; with HCV genotype 1b replicon, 3.4 nM.

For `CNC(=O)c1c(C(=O)N2CCOCC2)oc2cc(N(C)S(C)(=O)=O)c(-c3ccc4c(n3)-c3cc5c(F)cccc5n3CO4)cc12` [Compound 57], the IC50 with HCV genotype 1a replicon worked out at 232 nM; in the assay with HCV genotype 1b replicon it was 135 nM.

Consider `CNC(=O)c1c(-c2cccnc2OC)oc2cc(N(C)S(C)(=O)=O)c(-c3ccc4c(n3)-c3cc5c(F)cccc5n3CO4)cc12` [Compound 15], for which the IC50 in the assay with HCV genotype 1a replicon came to 23 nM; in the assay on HCV genotype 1b replicon it was 34 nM.

Take `CNC(=O)c1c(-c2ccc(C(F)(F)F)cn2)oc2cc(N(C)S(C)(=O)=O)c(-c3ccc4c(n3)-c3cc5c(F)cccc5n3CO4)cc12` [Compound 31]: the IC50 in the assay on HCV genotype 1a replicon was found to be 5.9 nM; in the assay on HCV genotype 1b replicon it was 3.9 nM.

As to `CNC(=O)c1c(C23CCCC2C3)oc2cc(N(C)S(C)(=O)=O)c(-c3ccc4c(n3)-c3cc5c(F)cccc5n3CO4)cc12` (stereo not shown) [Compound 48, 2-(bicyclo[3.1.0]hexan-1-yl)-5-(11-fluoro-6H-pyrido[2′,3′:5,6][1,3]oxazino[3,4-a]indol-2-yl)-N-methyl-6-(N-methylmethylsulfonamido)benzofuran-3-carboxamide], the values for the IC50 in the assay on HCV genotype 1a replicon and in the assay on HCV genotype 1b replicon were 28 nM and 34 nM, respectively.

Regarding `CNC(=O)c1c(-c2ccc(C(F)(F)F)cc2)oc2cc(N(C)S(C)(=O)=O)c(-c3ccc4c(n3)-c3cc5c(F)cccc5n3CO4)cc12` [Compound 8], the IC50 in the assay on HCV genotype 1a replicon was 6.3 nM; in the assay with HCV genotype 1b replicon, 4.5 nM.

As for `CNC(=O)c1c(-n2ccnc2)oc2cc(N(C)S(C)(=O)=O)c(-c3ccc4c(n3)-c3cc5c(F)cccc5n3CO4)cc12` [Compound 36, 5-(11-fluoro-6H-pyrido[2′,3′:5,6][1,3]oxazino[3,4-a]indol-2-yl)-2-(1H-imidazol-1-yl)-N-methyl-6-(N-methylmethylsulfonamido)benzofuran-3-carboxamide], the values for the 50% inhibitory concentration (IC50) in the assay on HCV genotype 1a replicon and with HCV genotype 1b replicon were 14 nM and 20 nM, respectively.

With `CNC(=O)c1c(-c2ccc(C(F)F)nc2)oc2cc(N(C)S(C)(=O)=O)c(-c3ccc4c(n3)-c3cc5c(F)cccc5n3C(CO)O4)cc12` (stereo not shown) [Compound 22], the figures for the IC50 in the assay on HCV genotype 1a replicon and in the assay with HCV genotype 1b replicon were 3.5 nM and 2.5 nM, respectively.

Take `CNC(=O)c1c(-c2ccc(OCC(F)(F)F)nc2)oc2cc(N(C)S(C)(=O)=O)c(-c3ccc4c(n3)-c3cc5c(F)cccc5n3C(CO)O4)cc12` (stereo not shown) [Compound 24]: the 50% inhibitory concentration (IC50) worked out at 1.7 nM with HCV genotype 1a replicon and 1.4 nM with HCV genotype 1b replicon.

In the case of `CNC(=O)c1c(C2=CCCC2)oc2cc(N(C)S(C)(=O)=O)c(-c3ncc4c(n3)-c3cc5c(F)cccc5n3CO4)cc12` [Compound 47], the IC50 with HCV genotype 1a replicon was determined as 5.9 nM; in the assay with HCV genotype 1b replicon, 8.8 nM.

Regarding `CNC(=O)c1c(-n2ccc(C)cc2=O)oc2cc(N(C)S(C)(=O)=O)c(-c3ccc4c(n3)-c3cc5c(F)cccc5n3CO4)cc12` [Compound 38], the IC50 with HCV genotype 1a replicon was determined as 3.5 nM; in the assay with HCV genotype 1b replicon, 2.7 nM.

As for `CNC(=O)c1c(-c2nnc(C)o2)oc2cc(N(C)S(C)(=O)=O)c(-c3ccc4c(n3)-c3cc5c(F)cccc5n3CO4)cc12` [Compound 58, 5-(11-fluoro-6H-pyrido[2′,3′:5,6][1,3]oxazino[3,4-a]indol-2-yl)-N-methyl-2-(5-methyl-1,3,4-oxadiazol-2-yl)-6-(N-methylmethylsulfonamido)benzofuran-3-carboxamide], the IC50 came to 8.1 nM in the assay with HCV genotype 1a replicon and 7.9 nM in the assay with HCV genotype 1b replicon.

As to `CNC(=O)c1c(N2CCOCC2)oc2cc(N(C)S(C)(=O)=O)c(-c3ccc4c(n3)-c3cc5c(F)cccc5n3CO4)cc12` [Compound 42, 5-(11-fluoro-6H-pyrido[2′,3′:5,6][1,3]oxazino[3,4-a]indol-2-yl)-N-methyl-6-(N-methylmethylsulfonamido)-2-morpholinobenzofuran-3-carboxamide], the IC50 stood at 85 nM with HCV genotype 1a replicon and 35 nM with HCV genotype 1b replicon.

As for `CNC(=O)c1c(-c2cn(C)nc2C)oc2cc(N(C)S(C)(=O)=O)c(-c3ccc4c(n3)-c3cc5c(F)cccc5n3CO4)cc12` [Compound 16], the IC50 in the assay with HCV genotype 1a replicon stood at 26 nM; with HCV genotype 1b replicon, 8.5 nM.

On to `CNC(=O)c1c(C2CC2(C)C)oc2cc(N(C)S(C)(=O)=O)c(-c3ccc4c(n3)-c3cc5c(F)cccc5n3CO4)cc12` (stereo not shown) [Compound 49], for which the values for the IC50 in the assay on HCV genotype 1a replicon and in the assay on HCV genotype 1b replicon were 27 nM and 22 nM, respectively.

For the compound `CNC(=O)c1c(C=C(C)C)oc2cc(N(C)S(C)(=O)=O)c(-c3ccc4c(n3)-c3cc5c(F)cccc5n3CO4)cc12` [Compound 3], the IC50 came out at 3.6 nM in the assay on HCV genotype 1a replicon and 5.8 nM with HCV genotype 1b replicon.

Source of the values: patent US9242998B2, “Tetracyclic heterocycle compounds and methods of use thereof for the treatment of hepatitis C” (priority 2013, dated 2016).
